Tests used:
[1] = system: Hepatitis C virus; test: Inhibition of HCV replicase complex in cell-free assay; details: Hepacivirus hominis
[2] = Ratio of CC50 for Huh7 cells to EC50 for HCV; format: functional, Huh-7
[3] = molecular target: Hepatitis C virus; test: Antiviral activity against HCV by replicon assay

SMILES | IC50 [1] [µM] | EC50 [3] [µM] | Ratio CC50/EC50 [2]
NC(=O)c1c(NC(=O)CCc2ccccc2)sc2c1CCCC2 | > 100 |  | 
CCC1CCc2c(sc(NC(=O)CCc3ccccc3)c2C#N)C1 (stereo not given) | > 100 |  | 
CCOC(=O)c1c(NC(=O)CCc2ccccc2)sc(C)c1CC | > 100 |  | 
CC1CCc2c(sc(NC(=O)CCc3ccccc3)c2C(N)=O)C1 (stereo not given) | > 100 |  | 
CCc1c(C)sc(NC(=O)CCc2ccccc2)c1C(=O)O | > 100 |  | 
Cc1sc(NC(=O)CCc2ccccc2)c(C(N)=O)c1C | > 100 |  | 

Now those with a lower IC50 [1], led by results:

IC50 [1] [µM] | EC50 [3] [µM] | SMILES | Ratio CC50/EC50 [2]
50 | 0.92 | CCc1c(C)sc(NC(=O)CCc2ccccc2)c1C(N)=O | 3
30 | 1.95 | CCC1CCc2c(sc(NC(=O)CCc3ccccc3)c2C(N)=O)C1 (stereo not given) | 3
25 | 1.66 | CCc1c(C)sc(NC(=O)CCc2ccccc2)c1C#N | 3
